In patent US20220233556A1, “COMPOSITIONS AND METHODS FOR TREATING OPHTHALMIC CONDITIONS” (Medicon Pharmaceuticals, Inc., priority 2017, published 2022):
Where two headings read alike, the source gives them in different places.

Experiments:
[1] = PS levels in ocular tissues (HPLC) after topical 3.5% PS Vitamin E TPGS solution; type: in vivo, New Zealand white rabbits; settings: New Zealand white, rabbit, 3.5 % PS solution (eye drops)
Experimental: Composition: 3.5% PS; 16% Vitamin E TPGS (d-α-tocopheryl polyethylene glycol 1000 succinate); 3.18% mannitol; 1.2% boric acid; 0.005% polyquaternium-1 (Polyquad). Alternatively, vitamin E TPGS may be replaced by other solubilizing agents. Polyquad is added as a preservative.
Preparation Method: Polyquad and Vitamin E TPGS were dissolved in purified water followed by addition of PS and stirring at 70° C. for 30 min. Then the solution was centrifuged to remove non-dissolved drug particles and the supernatant was collected, to which mannitol and boric acid were added. The final volume was adjusted with purified water after adjusting the pH to 6.7±0.2 with NaOH.
Results: The above PS formulation was administered topically as eye drops to the eyes of New Zealand white rabbits. The levels of PS in ocular tissues 1 h and 3 h later were determined by HPLC.

[2] = Biodistribution of PS in human cadaveric eyes (ex vivo), PS nanoparticle solution; type: in vitro ADME; settings: human eye ex vivo
Experimental: Human cadaveric eyes were obtained through the Lions Eye Bank for Long Island, Valley Stream, N.Y. They were preserved on ice and used within 2 h from removal from the donors.
The anterior surface of the human eye (corresponding to an area slightly larger than the palpebral fissure) was brought into direct contact with a PS nanoparticle (NP) solution (PS concentrations were 0.2%, 1% and 2%) and treated as above for the solution formulations of PS. […]

[3] = Safety of topically applied PS in rabbits (slit lamp, intraocular pressure, necropsy); type: in vivo
Source text: The Safety of Topically Applied PS.

[4] = PS biodistribution after topical alternative gellan gum-based in-situ gel; type: in vivo, New Zealand white rabbits; settings: New Zealand white, rabbit, alternative gellan gum 0.4% gel
Experimental: Composition: 2.4-3% PS; 0.4% Gellan gum; 10% Vitamin E TPGS; 5% (2-hydroxypropyl)-β-cyclodextrin.
Results: PS in this formulation was administered topically to the eyes of New Zealand white rabbits and its biodistribution was determined as above.

[5] = PS biodistribution after topical Poloxamer 407-based in-situ gel; type: in vivo, New Zealand white rabbits; settings: Poloxamer 407 gel, eye drops; for concentration at 3 h: New Zealand white, rabbit, topical, 5.4 % PS in formulation
Experimental: Composition: 5.4% PS; 20% Poloxamer 407; 12% Vitamin E TPGS.
Preparation Method: Poloxamer 407 solution (thermosensitive gel solution) was prepared using a “cold method.” The required amount of Poloxamer 407 and other excipients were dissolved in cold double-distilled water at 4° C. The mixture was stirred continuously until a clear solution was obtained. Then the appropriate amount of PS was dissolved in cold PM solution with continuous stirring at room temperature until a clear solution formed.
Results: PS in this formulation was administered topically as eye drops to the eyes of New Zealand white rabbits. The biodistribution of PS in ocular tissues at 3 h and 6 h was determined by HPLC.

[6] = system: ocular inflammation (cataract surgery plus LPS); assay: Ocular inflammation after cataract surgery plus LPS in rabbits; type: in vivo, New Zealand white rabbits; settings: PS 3.5% nanoparticles
Experimental: The anti-inflammatory effect of PS in New Zealand white rabbits was evaluated following cataract surgery and administration of the proinflammatory bacterial lipopolysaccharide (LPS). Briefly, the lens was removed by phacoemulsification and aspiration and replaced with the hydrophobic acrylic intraocular lens (AR40e, AMO). Upon completion of the operation, 1 μg of LPS dissolved in 10 μl PBS was injected into the vitreous to induce uveitis.
Rabbits were treated with PS 3.5% formulated in nanoparticles or vehicle (nanoparticles without PS) applied topically as eye drops three times per day. The first application was made within 1 h after completion of surgery. The rabbits were examined daily and the aqueous humor (AH) was sampled by needle aspiration on days 1, 3, and 5 following the injection of LPS. The number of infiltrating cells in the AH was determined following standard methods. On day 5, the rabbits were euthanized and the implanted lens was removed and fixed in 2.5% glutaraldehyde and the number of inflammatory cells attached to the lens was examined under a dissecting microscope.

[7] = aqueous humor, read-out: PS in Aqueous humor
[8] = choroid, read-out: PS in Choroid
[9] = conjunctiva, read-out: PS in Conjunctiva
[10] = weekly during 1-month application

CCOP(=O)(OCC)OCCCCOC(=O)CC1=C(C)/C(=C/c2ccc([S+](C)[O-])cc2)c2ccc(F)cc21 (centres unmarked) [PS, phosphosulindac]
concentration at 1 h [1, 7]: 2300 nM | concentration at 3 h [1, 7]: 100 nM | concentration at 1 h [1, 8]: 3200 nM | concentration at 3 h [1, 8]: 200 nM | concentration at 1 h [1, 9]: 9300 nM | concentration at 3 h [1, 9]: 500 nM | concentration at 1 h ([1]; cornea, read-out: PS in Cornea): 6900 nM | concentration at 3 h ([1]; cornea, read-out: PS in Cornea): 800 nM | concentration at 3 h ([1]; iris, read-out: PS in Iris): 900 nM | concentration at 3 h ([1]; lacrimal gland, read-out: PS in Lacrimal gland): 500 nM | concentration at 1 h ([1]; lens, read-out: PS in Lens): 1800 nM | concentration at 3 h ([1]; lens, read-out: PS in Lens): 100 nM | concentration at 1 h ([1]; retina, read-out: PS in Retina): 2700 nM | concentration at 3 h ([1]; retina, read-out: PS in Retina): 200 nM | concentration at 1 h ([1]; sclera, read-out: PS in Sclera): 2300 nM | concentration at 3 h ([1]; sclera, read-out: PS in Sclera): 200 nM | concentration at 1 h ([1]; vitreous body, read-out: PS in Vitreous body): 3600 nM | PS in Cornea ([2]; 0.2% PS-NPs): 22.8 µM | PS in Iris ([2]; 0.2% PS-NPs): 8.0 µM | PS in Lens ([2]; 0.2% PS-NPs): 0.4 µM | PS in Retina ([2]; 0.2% PS-NPs): 2.2 µM | PS in Sclera ([2]; 0.2% PS-NPs): 30.7 µM | PS in Cornea ([2]; 1% PS-NPs): 58.8 µM | PS in Iris ([2]; 1% PS-NPs): 35.5 µM | PS in Lens ([2]; 1% PS-NPs): 1.6 µM | PS in Retina ([2]; 1% PS-NPs): 4.8 µM | PS in Sclera ([2]; 1% PS-NPs): 152.0 µM | PS in Cornea ([2]; 2% PS-NPs): 92.7 µM | PS in Iris ([2]; 2% PS-NPs): 17.4 µM | PS in Lens ([2]; 2% PS-NPs): 0.6 µM | PS in Retina ([2]; 2% PS-NPs): 1.2 µM | PS in Sclera ([2]; 2% PS-NPs): 113.0 µM | signs of uveitis ([3]; 1-month application): No animal developed signs of uveitis | Intraocular pressure ([3]; Tonopen, 1-month application): remained normal | tolerability of ocular application ([3]; rabbits, topical): very well tolerated | slit lamp: corneal abnormalities (staining defects, vascularization, opacification, epithelial defects, stromal thinning, melts) [3, 10]: nor were there signs of corneal abnormalities | slit lamp: follicular/papillary response or injection of the conjunctiva [3, 10]: no evidence of follicular/papillary response or injection of the conjunctiva | concentration at 0.5 h [4, 7]: 600 nM | concentration at 1 h [4, 7]: 400 nM | concentration at 0.5 h [4, 9]: 37700 nM | concentration at 1 h [4, 9]: 20800 nM | concentration at 3 h [4, 9]: 700 nM | concentration at 5 h [4, 9]: 1100 nM | concentration at 8 h [4, 9]: 700 nM | concentration at 0.5 h ([4]; cornea, read-out: PS in Cornea): 24300 nM | concentration at 1 h ([4]; cornea, read-out: PS in Cornea): 50800 nM | concentration at 3 h ([4]; cornea, read-out: PS in Cornea): 1500 nM | concentration at 5 h ([4]; cornea, read-out: PS in Cornea): 1100 nM | concentration at 8 h ([4]; cornea, read-out: PS in Cornea): 1600 nM | PS in Aqueous humor ([5]; 3 h, 5.4% PS): 0.3 µM | PS in Conjunctiva ([5]; 3 h, 5.4% PS): 5.6 µM | PS in Aqueous humor ([5]; 6 h, 5.4% PS): 0.3 µM | PS in Conjunctiva ([5]; 6 h, 5.4% PS): 10.7 µM | PS in Cornea ([5]; 6 h, 5.4% PS): 13.6 µM | concentration at 3 h ([5]; choroid, 3 h, read-out: PS in Choroid): 900 nM | concentration at 3 h ([5]; cornea, 3 h, read-out: PS in Cornea): 45100 nM | number of inflammatory cells in AH ([6]; day 3, vehicle 24−35×10^4/ml): < 70000 mL⁻¹ | inflammatory cells attached to implanted lens ([6]; day 5): very few or no cells | ocular inflammation (clinical appearance) ([6]; eye drops three times per day, first 24 h): essentially eliminated
